# Measurements taken from patent US7659299B2, “Compounds inhibiting the binding of sap for treating osteoarthritis” (Pentraxin Therapeutics Limited, priority 2003, dated 2010).
# What was measured:
# SAP [1] = molecular target: T1, SAP (Homo sapiens, UniProt P02743); test: Inhibition of binding of 125I radiolabelled SAP to native long chromatin immobilized in microtitre plates; parameters: 5 μl of radiolabelled SAP in TN; from tissue; conditions: read-out: Percent inhibition of binding of radiolabelled SAP to immobilized native long chromatin
# T1 sequence (P02743 20-223): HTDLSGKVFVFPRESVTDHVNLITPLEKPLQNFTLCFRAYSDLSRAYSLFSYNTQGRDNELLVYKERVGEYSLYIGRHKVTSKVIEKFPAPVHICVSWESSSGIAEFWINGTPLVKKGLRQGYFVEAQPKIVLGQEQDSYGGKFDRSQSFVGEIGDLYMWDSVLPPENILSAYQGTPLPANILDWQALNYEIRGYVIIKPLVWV
# SAP [2] = molecular target: T1, SAP; test: Inhibition of binding of 125I radiolabelled SAP to influenza virus immobilized in microtitre plates; parameters: 5 μl of radiolabelled SAP in TN; from tissue; conditions: read-out: Percent inhibition of binding of radiolabelled SAP to immobilized influenza virus; for inhibition at 0.2 µM: compound 200 nM; for inhibition at 2 µM: compound 2 μM; for inhibition at 20 µM: compound 20 μM; for inhibition at 200 µM: compound 200 μM
# Protocol: A concentrated suspension of purified influenza virus A/Shanghai/24/90 at 10 mg protein per ml in PBS was diluted 1:50 in PBS and then dispensed to polystyrene microtitre plates at 50 μl volumes per well, and left overnight at 4° C. All wells were then emptied before blocking by addition to each well of 200 μl of 2% w/v BSA in PBS and incubation at room temperature for 1 h. All wells were then washed three times with 200 μl volumes of PBS containing 0.05% v/v Tween 20, prior to equilibration for 2 min with 0.01M Tris buffered 0.14M NaCl/0.002M CaCl2 at pH 8.0 (TC buffer), containing 4% w/v BSA and 0.05% v/v Tween 20 (TCBT buffer). The wells were then emptied before adding to each one the following reagents. […] For background, non-specific, non calcium dependent, binding in the presence of EDTA: 5 μl radiolabelled SAP in TN and 45 μl 0.01M Tris buffered 0.14M NaCl at pH 8.0 containing 11.1 mM EDTA, 4.4% w/v BSA and 0.06% w/v Tween 20 (TEBT buffer) to provide final concentrations of EDTA, 10 mM; BSA, 4%; Tween 20, 0.05%. […] All wells were then incubated at room temperature for 2 h before being washed three times with 200 μl volumes of TCBT, allowed to dry for 1 h at room temperature, and bound radiolabelled SAP was then counted. The compounds tested in the experiment shown here were the same as those specified in Example B above.
# The capacity of the compounds tested to inhibit binding of SAP to the immobilised influenza virus is expressed as the percentage by which SAP binding was reduced compared to binding in the absence of any inhibitor (Table 3).
# SAP [3] = molecular target: T1, SAP; test: Inhibition of binding of 125I radiolabelled SAP to Neisseria meningitidis immobilized in microtitre plates; parameters: 5 μl of radiolabelled SAP in TN; from tissue; conditions: read-out: Percent inhibition of binding of radiolabelled SAP to immobilized Neisseria meningitidis; for inhibition at 0.2 µM: compound 200 nM; for inhibition at 2 µM: compound 2 μM; for inhibition at 20 µM: compound 20 μM
# Protocol: A suspension of heat killed Neisseria meningitidis at 1×10^8 organisms per ml in PBS was dispensed to polystyrene microtitre plates at 50 μl volumes per well, and left overnight at 4° C. All wells were then washed three times with 200 μl volumes of PBS containing 0.05% v/v Tween 20, prior to equilibration for 2 min with 0.01M Tris buffered 0.14M NaCl/0.002M CaCl2 at pH 8.0 (TC buffer), containing 4% w/v BSA and 0.05%/v Tween 20 (TCBT buffer). The wells were then emptied before adding to each one the following reagents. […] For background, non-specific, non calcium dependent, binding in the presence of EDTA: 5 μl radiolabelled SAP in TN and 45 μl 0.01M Tris buffered 0.14M NaCl at pH 8.0 containing 11.1 mM EDTA, 4.4% w/v BSA and 0.06% w/v Tween 20 (TEBT buffer) to provide final concentrations of EDTA, 10 mM; BSA, 4%; Tween 20, 0.05%. […] All wells were then incubated at room temperature for 2 h before being washed three times with 200 μl volumes of TCBT, allowed to dry for 1 h at room temperature, and bound radiolabelled SAP was then counted.
# The capacity of the compounds tested to inhibit binding of SAP to meningococci is expressed as the percentage by which SAP binding was reduced compared to binding in the absence of any inhibitor (Table 1).
# SAP [4] = molecular target: T1, SAP; test: Lead identification: inhibition of ligand binding by SAP (SAP binding to amyloid fibrils, high throughput screening); conditions: compared with the original hit Ro-15-3479
# Description: The compounds tested in the experiment shown here were a family of molecules developed as inhibitors of SAP binding to amyloid fibrils, following identification of an initial lead molecule during high throughput screening of a large compound library according to U.S. Pat. No. 6,126,918. […] A chemistry programme then produced, (R)-1-[6-(R)-2-Carboxy-pyrrolidin-1-yl]-6-oxo-hexanoyl]pyrrolidine-2-carboxylic acid (Ro-63-8695) (Example 8b of EP-A-915088) and a family of related molecules, that were tested here.
# SAP [5] = molecular target: T1, SAP; test: Surface plasmon resonance: calcium dependent binding of SAP to immobilised synthetic Aβ-42 amyloid fibrils
# Description: Surface plasmon resonance (SPR) is a low throughput but powerfully informative method to identify compounds that are bound by, or themselves bind to SAP, either in a calcium dependent fashion or independently of calcium, for the purposes of the present invention. For example, low molecular weight compounds that inhibit binding of SAP to its macromolecular ligands, including target ligands relevant to the present invention, can be detected by their effect on the signal generated by fluid phase SAP binding to ligand immobilised on the solid phase (Example A). Furthermore, when SAP itself is immobilised on the solid phase in an SPR instrument, the interaction with it of test molecules provided in the fluid phase generates a signal that can be detected and quantified. Purified SAP immobilized within an SPR instrument gives a quantifiable signal when it is exposed to another molecule that forms a complex with the SAP, and this is distinct from the absence of such a signal if no complex is formed. […] Another low throughput but powerful direct method is isothermal calorimetry that measures the heat of interaction in solution between SAP and test compounds according to the present invention. The binding affinity can be measured precisely as a guide to potential efficacy. Typical results by this method for the dissociation constants, Kd, between SAP and various compounds are as follows:
# Synthetic Aβ-42 amyloid fibrils (28) were covalently immobilised on the reactant surface of the Fisons IAsys surface plasmon resonance instrument, and then exposed to isolated SAP (32) in solution in Tris-buffered physiological saline in the absence of calcium (shown as TN/N in the Figures). No binding of SAP occurred and thus no signal was generated. Introduction of calcium allowed the SAP to bind specifically to the immobilised amyloid fibrils, generating a readily detectable signal (FIG. 1). […]
Compound,inhibition at 0.2 µM (SAP [1]; compound 200 nM) [%],inhibition at 2 µM (SAP [1]; compound 2 μM) [%],inhibition at 20 µM (SAP [1]; compound 20 μM) [%],inhibition at 200 µM (SAP [1]; compound 200 μM) [%],inhibition at 2000 µM (SAP [1]; compound 2 mM) [%],inhibition at 0.2 µM (SAP [2]) [%],inhibition at 2 µM (SAP [2]) [%],inhibition at 20 µM (SAP [2]) [%],inhibition at 200 µM (SAP [2]) [%],inhibition at 2000 µM (SAP [2]; compound 2 mM) [%],inhibition at 0.2 µM (SAP [3]) [%],inhibition at 2 µM (SAP [3]) [%],inhibition at 20 µM (SAP [3]) [%],inhibition at 2000 µM (SAP [3]; compound 2 mM) [%],"Inhibition of ligand binding by SAP, in words (SAP [4])","Effect on SPR signal reflecting ligand binding by SAP (SAP [5]; 50 μmol/l, added after SAP had bound, regenerated surface (FIG. 3))","SPR signal on addition of calcium after SAP and compound (SAP [5]; 100 μmol/l, added before calcium (FIG. 2))","Effect on binding of SAP to immobilised amyloid fibrils and the corresponding SPR signal (SAP [5]; 500 μmol/l in TC buffer, added after SAP had bound (FIG. 1))",inhibition at 200 µM (SAP [3]; compound 200 μM) [%]
"C[C@H](CSSC[C@@H](C)C(=O)N1CCC[C@@H]1C(=O)O)C(=O)N1CCC[C@@H]1C(=O)O [Ro-63-3300, (R)-1-[(S)-3-[(S)-3-[(R)-2-carboxy-pyrrolidin-1-yl]-2-methyl-3-oxo-propyldisulfanyl]-2-methyl-propionyl]-pyrrolidine-2-carboxylic acid]",3,34,69,88,99,47,78,90,91,91,28,68,73,100,much more potent,–,–,–,–
"C[C@H](CS)C(=O)N1CCC[C@@H]1C(=O)O [Ro-15-3479, 1-[(S)-3-Mercapto-2-methylpropionyl]-D-proline]",–,–,–,–,–,12,30,40,51,–,3,42,50,–,–,completely reversed,no signal,completely reversed the binding of SAP,54
